Reference: ChEMBL document CHEMBL4052606, “The Bengamides: A Mini-Review of Natural Sources, Analogues, Biological Properties, Biosynthetic Origins, and Future Prospects” (J Nat Prod, 2017)

Columns and labels:
[1] = biological target: Methionine aminopeptidase 2 (Homo sapiens, UniProt P50579); experiment: Inhibition of human MetAP2
HT-1080 = experiment: Cytotoxicity against human HT1080 cells
MDA-MB-435 [2] = experiment: Cytotoxicity against human MDA-MB-435 cells; format: functional, cell-based
MDA-MB-435 [3] = experiment: Cytotoxicity against human MDA-MB-435 cells assessed as reduction in cell viability after 24 hrs by MTT assay; format: functional, cell-based; settings: MDA-MB-435, 24 h
A549 = experiment: Antiproliferative activity against human A549 cells after 96 hrs; settings: A549, 96 h
HCT-116 = experiment: cells; settings: Homo sapiens, HCT-116, 96 h
Description: Antiproliferative activity against human HCT116 cells after 96 hrs

MDA-MB-435 [4] = experiment: Cytotoxicity against human MDA-MB-435 cells assessed as reduction in cell viability after 72 hrs by MTS assay; settings: MDA-MB-435, 72 h
MDA-MB-231 = experiment: Cytotoxicity against human MDA-MB-231 cells; format: functional, cell-based
[5] = biological target: Methionine aminopeptidase 1 (Homo sapiens, UniProt P53582); experiment: Inhibition of human MetAP1

Chain of Methionine aminopeptidase 2 (P50579 whole entry): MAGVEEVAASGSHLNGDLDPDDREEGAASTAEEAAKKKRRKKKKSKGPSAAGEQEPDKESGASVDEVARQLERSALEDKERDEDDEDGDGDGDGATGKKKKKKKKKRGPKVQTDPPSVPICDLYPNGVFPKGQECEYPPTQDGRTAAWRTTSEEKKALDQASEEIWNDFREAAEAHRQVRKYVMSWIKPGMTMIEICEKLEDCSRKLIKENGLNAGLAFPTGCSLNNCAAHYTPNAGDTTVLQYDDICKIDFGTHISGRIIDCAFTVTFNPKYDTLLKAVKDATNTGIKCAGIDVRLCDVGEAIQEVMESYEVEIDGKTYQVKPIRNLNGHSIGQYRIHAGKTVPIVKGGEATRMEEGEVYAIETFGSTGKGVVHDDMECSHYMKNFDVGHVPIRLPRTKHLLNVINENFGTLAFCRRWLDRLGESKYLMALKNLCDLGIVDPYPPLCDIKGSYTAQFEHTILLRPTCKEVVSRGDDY

| Compound | IC50 (MDA-MB-435 [2]) [nM] | IC50 (HCT-116) [nM] | IC50 (MDA-MB-435 [4]) [nM] | further results |
| --- | --- | --- | --- | --- |
| CC(C)(C)OC(=O)Nc1cccnc1C(=O)Nc1nccs1 | – | – | – | IC50 [1]: > 300 µM; IC50 (HT-1080): 300 nM |
| CO[C@@H](C(=O)N[C@H]1CC[C@H](OC(=O)CCCCCCCCCCC(C)C)CN(C)C1=O)[C@H](O)[C@@H](O)[C@H](O)/C=C/C(C)C | – | – | – | IC50 [1]: > 50 µM |
| CO[C@@H](C(=O)N[C@H]1CCCCN(CCOC(=O)C2CCCCC2)C1=O)[C@H](O)[C@@H](O)[C@H](O)/C=C/C(C)(C)C | 17 | – | – | – |
| CO[C@@H](C(=O)N[C@@H](C)C(=O)NCCOC(=O)C1CCCCC1)[C@H](O)[C@@H](O)[C@H](O)/C=C/C(C)(C)C | – | – | – | IC50 (MDA-MB-435 [3]): 4 nM |
| CNC(=O)[C@H](CC(C)C)NC(=O)[C@H](OC)[C@H](O)[C@@H](O)[C@H](O)/C=C/C(C)(C)C | 20000 | – | – | – |
| CO[C@@H](C(=O)N[C@H]1CCc2ccccc2NC1=O)[C@H](O)[C@@H](O)[C@H](O)/C=C/C(C)(C)C | – | 44 | 3.8 | IC50 (A549): 9 nM |
| CO[C@@H](C(=O)N[C@H]1CCCCNC1=O)[C@H](O)[C@@H](O)[C@H](O)/C=C/C1CCCC1 | 0.4 | – | – | – |
| CO[C@H]1[C@@H](OC(=O)/C=C/C=C/C=C/C=C/C(=O)O)CC[C@]2(CO2)[C@@H]1[C@@]1(C)O[C@@H]1CC=C(C)C | – | – | – | IC50 (MDA-MB-231): 54 nM; IC50 [1]: 0.2 µM |
| CO[C@@H](C(=O)N[C@H]1CC[C@@H](OC(=O)C2CCCCC2)CNC1=O)[C@H](O)[C@@H](O)[C@H](O)/C=C/C(C)(C)C | – | 23 to 40 | 40 | IC50 (A549): 13 nM |
| COc1ccc(N2CCN(c3nc(-c4ccccn4)nc4ccccc34)CC2)cc1 | – | – | – | IC50 [1]: > 100 µM |
| CCCCCCCCCCCCCC(=O)OCCC[C@H](NC(=O)[C@H](OC)[C@H](O)[C@@H](O)[C@H](O)/C=C/C(C)(C)C)C(=O)NC | 190 | – | – | – |
| CO[C@@H](C(=O)N[C@H]1CC[C@@H](OC(=O)C2CCCCC2)CNC1=O)[C@H](O)[C@@H](O)[C@H](O)/C(C)=C/C(C)(C)C | – | 140 | – | IC50 [5]: > 10 µM |
| CO[C@H](C(=O)N[C@H]1CCCCNC1=O)[C@@H](O)[C@H](O)[C@@H](O)/C=C/C(C)C | 4 | – | – | – |
| CC(C)/C=C/[C@@H](O)[C@H](O)[C@@H](O)[C@@H](O)C(=O)N[C@H]1CCCCNC1=O | – | – | 12000 | – |
| CO[C@H](C(=O)N[C@@H]1CCCCNC1=O)[C@@H](O)[C@H](O)[C@@H](O)/C=C/C(C)C | – | > 50000 | – | – |
| CO[C@@H](C(=O)N[C@H]1CCCCNC1=O)[C@H](O)[C@@H](O)[C@H](O)/C=C\C(C)C | 14 | – | – | – |
| CCCCCCCCCCCCCC(=O)O[C@H]1CC[C@H](NC(=O)[C@H](OC)[C@H](O)[C@@H](O)[C@H](O)/C=C/C(C)C)C(=O)NC1 [BENGAMIDE A] | – | 0.4 to 16 | 1 | – |
| CCCCCCCCCCCCCC(=O)O[C@H]1CC[C@H](NC(=O)[C@H](OC)[C@H](O)[C@@H](O)[C@H](O)/C=C/C(C)C)C(=O)N(C)C1 [BENGAMIDE B] | – | – | 2 | – |
| CO[C@@H](C(=O)N[C@H]1CCCCNC1=O)[C@H](O)[C@@H](O)[C@H](O)/C=C/C(C)C [BENGAMIDE E] | 3.8 | 3.8 to 600 | 4 to 7 | – |
| CO[C@@H](C(=O)N[C@H]1CC[C@H](O)CN(C)C1=O)[C@H](O)[C@@H](O)[C@H](O)/C=C/C(C)C [BENGAMIDE F] | – | – | 3 | – |
